Measured values from article PMC11641365, “Evaluation of In Vitro Biological Activity of Flavanone/Chromanone Derivatives: Molecular Analysis of Anticancer Mechanisms in Colorectal Cancer” (International Journal of Molecular Sciences, 2024).
Like-named read-outs stand apart in the source and are kept apart here.

How the values were obtained:
LoVo [1] = assay: MTT cell viability assay; assay type: cell-based; settings: Homo sapiens, 24 h incubation with compound, mean ± SD of three experiments, read-out: Cytotoxic effect, IC50
Protocol: (§1) The cytotoxic activity of the 3-benzylideneflavanones, 3-benzylidenechromanones derivatives (compounds 1, 2, 3, 4, 5) and 5′-(3-methoxyphenyl)-2-phenyl-4′,5′-dihydro-4H-spiro[chromano-3,3′-pirazol]-4-one (compound 3a) was evaluated using the MTT assay (4,5-dimethylthiazol-2-yl)-2,5-diphenyltetrazoliumbromide), a colorimetric method that quantifies cell viability.
(§2) Cell viability was determined using the metabolic microplate spectrophotometric assay with Methylthiazolyl diphenyltetrazolium bromide (MTT) (Sigma-Aldrich; St. Louis, MO, USA). The MTT method belongs to metabolic tests for determining cell viability and consists of measuring the absorbance of a violet solution of formazan, a product of the reduction of a water-soluble yellow MTT by oxidoreductive enzymes (mainly mitochondrial succinate dehydrogenase) of living cells. The amount of the reaction product (water-insoluble formazan crystals) is proportional to the number of living and metabolically active cells in the sample. In the case of damaged or dead cells, formazan is formed in smaller amounts, or it is not formed.
(§3) The appropriate number of cells for a given cell line (6–8 × 10^3 cells/mL) were seeded onto colorless, sterile 96-well microplates (Nunc, Roskilde, Denmark) in the number appropriate for a given cell line. After 24 h of culture, various concentrations of the studied compounds (10^−7–10^−5 M) freshly prepared in DMSO (final concentration DMS < 0.1%) and diluted with complete culture medium were added and incubated in a CO2 incubator for 24 h. After this time, the medium was removed; the cell monolayer was washed twice with sterile PBS solution; and fresh culture medium was added to the microplate wells. After 48 h of cell culture, the MTT test was performed. A volume of 50 μL of tetrazolium salt solution (final concentration 0.05 mg/mL) was added to each microplate well. The microplate was placed for 3–4 h (depending on the cell line) in a CO2 incubator. After incubation, 100 μL of DMSO was added to the wells of the microplate to dissolve the purple formazan crystals formed in the living cell environment. The absorbance of the formazan solution, after gentle mixing, was read at a wavelength of λ = 580 nm and a reference wavelength of λ = 720 nm (Biotek Power Wave HT, Biotek Instruments, Winooski, VT, USA). The percentage of living cells was calculated by comparing the absorbance value of the tested samples with the absorbance value of the control (cells not treated with compounds). The absorbance of the control was taken as 100%.

SW620 [2] = assay: MTT cell viability assay; assay type: cell-based; settings: Homo sapiens, SW-620, 24 h incubation with compound, mean ± SD of three experiments, read-out: Cytotoxic effect, IC50
Protocol: as §1, §2, §3

[3] = test system: human colon cancer cell lines: HCT 116, SW620, LoVo, Caco-2, and HT-29; assay: MTT cell viability assay, statements across the panel; assay type: cell-based; settings: range over the cancer cell lines, read-out: IC50 range against colon cancer cell lines
Protocol: as §1, with “viability. […] These IC50 values were subsequently used for all experiments investigating the anticancer activity of the flavanone/chromanone derivatives in this study.” for “viability.”
as §2
as §3, with “100%. […] Moreover, cisplatin (Sigma-Aldrich, St. Louis, MO, USA) was used as a reference compound, and identical incubation conditions were used as described above.” for “100%.”

HCT 116 = assay: Cell cycle analysis via flow cytometry (propidium iodide); assay type: cell-based, human; settings: compound at IC50, 24 h, vs control
Protocol: (§4) The most commonly used fluorescent dyes for cell cycle analysis are fluorochromes that penetrate the cell membrane into the interior of permeabilized cells and bind stoichiometrically to DNA via intercalation, e.g., DAPI, propidium iodide (PI). The analysis is performed on cells fixed in ethanol. In this work, the cell cycle analysis was performed using the method described by Darzynkiewicz and Juan.
(§5) Cells (10 × 10^3) were seeded in 35 mm dishes and cultured in the medium for 24 h to attain the logarithmic growth phase. […] Subsequently, cells were trypsinized and centrifuged for 10 min at 400× g at 4 °C. The cell suspension in 100 μL of PBS was fixed in 1 mL of 70% ethanol (−20 °C) and stored at this temperature until analysis. Immediately before analysis, the ethanol-fixed cell suspension was centrifuged at 10,000 rpm for 10 min at 4 °C. The pellet was washed with cold (4 °C) PBS to remove residual ethanol, and the cell suspension was centrifuged again under the same conditions. A volume of 300 μL of PBS containing 4 mg/mL propidium iodide (final concentration 75 μM) and 1 mg/mL RNAse A (final concentration 20 μg/mL) was added to the cell pellet and incubated for at least 30 min at 37 °C in the dark. Stained cells were analyzed using a flow cytometer (Becton Dickinson, Franklin Lakes, NJ, USA), counting 10,000 cells in each sample. Data were analyzed using FlowJo 10.10 software (FlowJo, Williamson Way Ashland, OR, USA).

LoVo [4] = assay: as above; assay type: cell-based, human; settings: compound at IC50, 24 h, vs control
Protocol: as §4, §5

SW620 [5] = assay: as above; assay type: cell-based, human; settings: compound at IC50, 24 h; for Increase in the G2/M phase cell fraction: vs control
Protocol: as §4, §5

IC50 ([3]; Homo sapiens) [µM] | IC50 [3] [µM] | SMILES | IC50 (LoVo [1]) [µM] | IC50 (SW620 [2]) [µM] | Increase in the G2/M phase cell fraction (HCT 116) | Increase in the G2/M phase cell percentage (LoVo [4]) | Change in cell cycle parameters or G2/M phase arrest (SW620 [5]) | Increase in the G2/M phase cell fraction (SW620 [5])
8 to 30 | 8 to 20 | O=C1/C(=C/c2ccccc2)COc2ccccc21 [Compound 1] | 12.6 ± 1.5 | 8.1 ± 1.7 | approximately 10% | approximately 10% | no statistically significant changes | 
8 to 30 |  | COc1cccc(/C=C2/C(=O)c3ccccc3OC2c2ccccc2)c1 (stereo not shown) [Compound 3] | 23.2 ± 1.4 | 12.4 ± 2.1 | approximately 30% | approximately 35% |  | approximately 20%
8 to 30 |  | O=C1/C(=C/c2ccccc2)C(c2ccccc2)Oc2ccccc21 (stereo not shown) [Compound 5] | 19.4 ± 2.1 | 16.7 ± 3.1 | 20% | approximately 20% |  | ~13%
